We go through 3 compounds from patent publication US7250431B2, “Thiazole derivatives” (Hoffmann-La Roche Inc., priority 2003, dated 2007).

The target of this assay is T1, mouse NPY5-receptor (mNPY5) (Mus musculus, UniProt O70342).
T1 construct: The full-length cDNA encoding the mouse NPY5 (mNPY5) receptor was amplified from mouse brain cDNA; expressed in transfected cells; membranes used
T1 sequence (O70342 1-466): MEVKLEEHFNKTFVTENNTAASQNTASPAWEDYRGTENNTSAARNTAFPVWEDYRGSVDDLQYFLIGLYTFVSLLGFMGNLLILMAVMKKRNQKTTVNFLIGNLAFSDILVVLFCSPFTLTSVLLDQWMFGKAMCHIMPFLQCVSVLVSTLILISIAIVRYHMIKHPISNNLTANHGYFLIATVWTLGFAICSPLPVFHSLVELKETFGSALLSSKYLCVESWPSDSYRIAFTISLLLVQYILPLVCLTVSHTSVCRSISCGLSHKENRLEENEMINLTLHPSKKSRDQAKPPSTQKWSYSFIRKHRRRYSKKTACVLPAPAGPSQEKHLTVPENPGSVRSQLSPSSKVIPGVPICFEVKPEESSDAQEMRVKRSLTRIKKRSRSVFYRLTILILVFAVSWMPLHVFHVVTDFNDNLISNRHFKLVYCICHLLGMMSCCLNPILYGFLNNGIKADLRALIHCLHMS
Briefly: Radioligand competition binding. Conditions: membranes of HEK293 cells expressing recombinant mNPY5; 100 pM [125I]labelled peptide YY; 1 h at 22° C.; read-out: NPY5-R (mouse) IC50. An excerpt:
The full-length cDNA encoding the mouse NPY5 (mNPY5) receptor was amplified from mouse brain cDNA using specific primers, designed based on the published sequence, and Pfu DNA-Polymerase. The amplification product was subcloned into the mammalian expression vector pcDNA3 using Eco RI and XhoI restriction sites. Positive clones were sequenced and one clone, encoding the published sequence was selected for generation of stable cell clones.
Human embryonic kidney 293 (HEK293) cells were transfected with 10 μg mNPY5 DNA using the lipofectamine reagent. Two days after transfection, geneticin selection (1 mg/ml) was initiated and several stable clones were isolated. One clone was further used for pharmacological characterization.
Human embryonic kidney 293 cells (HEK293), expressing recombinant mouse NPY5-receptor (mNPY5) were broken by three freeze/thawing cycles in hypotonic Tris buffer (5 mM, pH 7.4, 1 mM MgCl2), homogenized and centrifuged at 72,000×g for 15 min. The pellet was washed twice with 75 mM Tris buffer, pH 7.4, containing 25 mM MgCl2 and 250 mM sucrose, 0.1 mM phenylmethylsulfonylfluoride and 0.1 mM 1,10-pheneanthrolin, resuspended in the same buffer and stored in aliquots at −80° C. Protein was determined according to the method of Lowry using bovine serum albumine (BSA) as a standard. […]
Usually IC50 stands for the concentration that inhibits the measured activity by half. In the case of `Cc1ccccc1C(=O)c1cnc(Nc2ccc(NS(=O)(=O)c3cccc(F)c3)cc2)s1` [Example 5, 3-Fluoro-N-{4-[5-(2-methyl-benzoyl)-thiazol-2-ylamino]-phenyl}-benzenesulfonamide], the IC50 was 0.74 nM. Regarding `Cc1ccccc1C(=O)c1cnc(Nc2cccc(NS(=O)(=O)c3cccs3)c2)s1` [Example 23, Thiophene-2-sulfonic acid {3-[5-(2-methyl-benzoyl)-thiazol-2-ylamino]-phenyl}-amide], the IC50 came to 0.54 nM. As to `Cc1ccccc1C(=O)c1cnc(Nc2ccc(CNS(=O)(=O)c3cc(F)ccc3C)cc2)s1` [Example 37, 5-Fluoro-2-methyl-N-{4-[5-(2-methyl-benzoyl)-thiazol-2-ylamino]-benzyl}-benzenesulfonamide], the half-inhibitory concentration (IC50) amounted to 0.99 nM.
